{"source": "ChEMBL document CHEMBL5344406", "about": "“1,2,3-Triazole-containing hybrids with potential antibacterial activity against ESKAPE pathogens” (2022)", "format_in_all_cases": "functional", "key": {"Klebsiella pneumoniae [1]": {"test_system": "Klebsiella pneumoniae", "assay": "Antibacterial activity against Klebsiella pneumoniae assessed as bacterial growth inhibition by broth microdilution method"}, "Staphylococcus aureus [2]": {"test_system": "Staphylococcus aureus", "assay": "Antibacterial activity against Staphylococcus aureus assessed as bacterial growth inhibition by broth microdilution method"}, "Escherichia coli [3]": {"test_system": "Escherichia coli", "assay": "Antibacterial activity against Escherichia coli assessed as bacterial growth inhibition by broth microdilution method"}, "Klebsiella pneumoniae [4]": {"test_system": "Klebsiella pneumoniae", "assay": "Antibacterial activity against Klebsiella pneumoniae producing extended spectrum beta-lactamases assessed as bacterial growth inhibition"}, "Escherichia coli [5]": {"test_system": "Escherichia coli", "assay": "Antibacterial activity against Escherichia coli assessed as bacterial growth inhibition"}, "Klebsiella aerogenes": {"test_system": "Klebsiella aerogenes", "assay": "Antibacterial activity against Enterobacter aerogenes assessed as bacterial growth inhibition"}, "Enterococcus faecium": {"test_system": "Enterococcus faecium", "assay": "Antibacterial activity against Enterococcus faecium assessed as bacterial growth inhibition"}, "Enterococcus faecalis": {"test_system": "Enterococcus faecalis", "assay": "Antibacterial activity against Enterococcus faecalis assessed as bacterial growth inhibition"}, "Klebsiella pneumoniae [6]": {"test_system": "Klebsiella pneumoniae", "assay": "Antibacterial activity against Klebsiella pneumoniae assessed as bacterial growth inhibition"}, "Escherichia coli [7]": {"test_system": "Escherichia coli", "assay": "Antibacterial activity against Escherichia coli producing extended spectrum beta-lactamases assessed as bacterial growth inhibition"}, "Staphylococcus aureus [8]": {"test_system": "Staphylococcus aureus", "assay": "Antibacterial activity against methicillin-sensitive Staphylococcus aureus assessed as bacterial growth inhibition"}, "Pseudomonas aeruginosa [9]": {"test_system": "Pseudomonas aeruginosa", "assay": "Antibacterial activity against Pseudomonas aeruginosa assessed as bacterial growth inhibition"}, "[10]": {"test_system": "Staphylococcus epidermidis", "assay": "Antibacterial activity against methicillin-sensitive Staphylococcus epidermidis assessed as bacterial growth inhibition"}, "Enterobacter cloacae": {"test_system": "Enterobacter cloacae", "assay": "Antibacterial activity against Enterobacter cloacae assessed as bacterial growth inhibition"}, "Proteus vulgaris": {"test_system": "Proteus vulgaris", "assay": "Antibacterial activity against Proteus vulgaris assessed as bacterial growth inhibition"}, "Providencia rettgeri": {"test_system": "Providencia rettgeri", "assay": "Antibacterial activity against Providencia rettgeri assessed as bacterial growth inhibition"}, "Staphylococcus aureus [11]": {"test_system": "Staphylococcus aureus", "assay": "Antibacterial activity against methicillin-resistant Staphylococcus aureus assessed as bacterial growth inhibition by agar dilution method"}, "Escherichia coli [12]": {"test_system": "Escherichia coli", "assay": "Antibacterial activity against multidrug-resistant Escherichia coli assessed as bacterial growth inhibition incubated for 24 hrs by […] method"}, "Pseudomonas aeruginosa [13]": {"test_system": "Pseudomonas aeruginosa", "assay": "Antibacterial activity against Pseudomonas aeruginosa ATCC 10145 assessed as bacterial growth inhibition measured for 5 to 20 mins by broth dilution method", "settings": "time 5-20 min"}, "Staphylococcus aureus [14]": {"test_system": "Staphylococcus aureus", "assay": "Antibacterial activity against Staphylococcus aureus ATCC 43300 assessed as bacterial growth inhibition measured for 5 to 20 mins by broth dilution method", "settings": "time 5-20 min"}, "Bacillus subtilis [15]": {"test_system": "Bacillus subtilis", "assay": "Antibacterial activity against Bacillus subtilis assessed as bacterial growth inhibition incubated for 24 hrs by spectrophotometry"}, "Escherichia coli [16]": {"test_system": "Escherichia coli", "assay": "Antibacterial activity against Escherichia coli assessed as bacterial growth inhibition incubated for 24 hrs by spectrophotometry"}, "Pseudomonas aeruginosa [17]": {"test_system": "Pseudomonas aeruginosa", "assay": "Antibacterial activity against Pseudomonas aeruginosa assessed as bacterial growth inhibition incubated for 24 hrs by spectrophotometry"}, "Staphylococcus aureus [18]": {"test_system": "Staphylococcus aureus", "assay": "Antibacterial activity against Staphylococcus aureus assessed as bacterial growth inhibition incubated for 24 hrs by spectrophotometry"}, "Staphylococcus aureus [19]": {"test_system": "Staphylococcus aureus", "assay": "Potency index, ratio of Norfloxacin MIC to test compound MIC for antibacterial activity against Staphylococcus aureus assessed as bacterial growth inhibition by broth dilution method"}, "Staphylococcus aureus [20]": {"test_system": "Staphylococcus aureus", "assay": "Antibacterial activity against Staphylococcus aureus assessed as bacterial growth inhibition by broth dilution method"}, "Staphylococcus aureus [21]": {"test_system": "Staphylococcus aureus", "assay": "Antibacterial activity against multidrug-resistant Staphylococcus aureus clinical isolate assessed as bacterial growth inhibition by broth dilution method"}, "Pseudomonas aeruginosa [22]": {"test_system": "Pseudomonas aeruginosa", "assay": "Antibacterial activity against Pseudomonas aeruginosa assessed as bacterial growth inhibition by broth microdilution method"}, "Bacillus subtilis [23]": {"test_system": "Bacillus subtilis", "assay": "Antibacterial activity against Bacillus subtilis assessed as bacterial growth inhibition by broth microdilution method"}, "Staphylococcus aureus [24]": {"test_system": "Staphylococcus aureus", "assay": "Antibacterial activity against methicillin-resistant Staphylococcus aureus ATCC 43300 infected in neutropenic mouse model of thigh infection assessed as reduction in bacterial load at 20 mg/kg, iv measured after 24 hrs by colony counting method"}, "Staphylococcus aureus [25]": {"test_system": "Staphylococcus aureus", "assay": "Potency index, ratio of Pleuromutilin MIC to test compound MIC for antibacterial activity against Staphylococcus aureus clinical isolate 144 incubated for 24 hrs by CLSI based broth dilution method"}, "Staphylococcus aureus [26]": {"test_system": "Staphylococcus aureus", "assay": "Antibacterial activity against Staphylococcus aureus ATCC 43300 assessed as bacterial growth inhibition incubated for 24 hrs by CLSI based broth dilution method"}, "Staphylococcus aureus [27]": {"test_system": "Staphylococcus aureus", "assay": "Antibacterial activity against Staphylococcus aureus ATCC 29213 assessed as bacterial growth inhibition incubated for 24 hrs by CLSI based broth dilution method"}, "Staphylococcus aureus [28]": {"test_system": "Staphylococcus aureus", "assay": "Antibacterial activity against Staphylococcus aureus clinical isolate AD3 assessed as bacterial growth inhibition incubated for 24 hrs by CLSI based broth dilution method"}, "Staphylococcus aureus [29]": {"test_system": "Staphylococcus aureus", "assay": "Potency index, ratio of Pleuromutilin MIC to test compound MIC for antibacterial activity against Staphylococcus aureus ATCC 43300 incubated for 24 hrs by CLSI based broth dilution method"}, "Staphylococcus aureus [30]": {"test_system": "Staphylococcus aureus", "assay": "Potency index, ratio of Pleuromutilin MIC to test compound MIC for antibacterial activity against Staphylococcus aureus ATCC 29213 incubated for 24 hrs by CLSI based broth dilution method"}, "Staphylococcus aureus [31]": {"test_system": "Staphylococcus aureus", "assay": "Potency index, ratio of Pleuromutilin MIC to test compound MIC for antibacterial activity against Staphylococcus aureus clinical isolate AD3 incubated for 24 hrs by CLSI based broth dilution method"}, "Staphylococcus aureus [32]": {"test_system": "Staphylococcus aureus", "assay": "Antibacterial activity against Staphylococcus aureus clinical isolate 144 assessed as bacterial growth inhibition incubated for 24 hrs by CLSI based broth dilution method"}}}
{"smiles": "COC(=O)[C@H](Cc1cn(Cc2cn(-c3ccccc3[N+](=O)[O-])nn2)c2ccccc12)NC(=O)[C@@H](C)c1ccc2cc(OC)ccc2c1", "values": [{"measurement": "MIC", "setting": "Klebsiella pneumoniae [1]", "result": 25, "unit": "µg/mL"}, {"measurement": "MIC", "setting": "Staphylococcus aureus [2]", "result": 25, "unit": "µg/mL"}, {"measurement": "MIC", "setting": "Escherichia coli [3]", "result": 25, "unit": "µg/mL"}]}
{"smiles": "CCO/N=C1\\C(=O)N(Cc2cn(CC(=O)N3CCC[C@@H]4CN(c5c(F)cc6c(=O)c(C(=O)O)cn(C7CC7)c6c5OC)C[C@@H]43)nn2)c2ccccc21", "values": [{"measurement": "MIC", "setting": "Klebsiella pneumoniae [4]", "result": "≤ 0.03", "unit": "µg/mL"}, {"measurement": "MIC", "setting": "Escherichia coli [5]", "result": "≤ 0.03", "unit": "µg/mL"}, {"measurement": "MIC", "setting": "Klebsiella aerogenes", "result": "≤ 0.03", "unit": "µg/mL"}, {"measurement": "MIC", "setting": "Enterococcus faecium", "result": "≤ 0.03", "unit": "µg/mL"}, {"measurement": "MIC", "setting": "Enterococcus faecalis", "result": "≤ 0.03", "unit": "µg/mL"}, {"measurement": "MIC", "setting": "Klebsiella pneumoniae [6]", "result": "≤ 0.03", "unit": "µg/mL"}, {"measurement": "MIC", "setting": "Escherichia coli [7]", "result": "≤ 0.03", "unit": "µg/mL"}, {"measurement": "MIC", "setting": "Staphylococcus aureus [8]", "result": "≤ 0.03", "unit": "µg/mL"}, {"measurement": "MIC", "setting": "Pseudomonas aeruginosa [9]", "result": "≤ 0.03", "unit": "µg/mL"}, {"measurement": "MIC", "setting": "[10]", "result": "≤ 0.03", "unit": "µg/mL"}, {"measurement": "MIC", "setting": "Enterobacter cloacae", "result": "≤ 0.03", "unit": "µg/mL"}, {"measurement": "MIC", "setting": "Proteus vulgaris", "result": "≤ 0.03", "unit": "µg/mL"}, {"measurement": "MIC", "setting": "Providencia rettgeri", "result": "≤ 0.03", "unit": "µg/mL"}]}
{"smiles": "COc1cc(/C=C/c2ccc(OCc3cn(-c4ccc(C(=O)O)cc4)nn3)cc2)cc(OC)c1", "values": [{"measurement": "MIC", "setting": "Staphylococcus aureus [11]", "result": 1.2, "unit": "µg/mL"}]}
{"smiles": "c1ccc(-n2cc(COc3ccc(-c4nc5ccccc5s4)cc3)nn2)cc1", "values": [{"measurement": "MIC", "setting": "Escherichia coli [12]", "result": 7.99, "unit": "µg/mL"}]}
{"smiles": "COCCOCCOCCOC(=O)c1cccc(-n2cc(CO[C@@H]3O[C@H](COC(C)=O)[C@H](OC(C)=O)[C@H](OC(C)=O)[C@H]3OC(C)=O)nn2)c1", "values": [{"measurement": "MIC", "setting": "Pseudomonas aeruginosa [13]", "result": 5, "unit": "µg/mL"}, {"measurement": "MIC", "setting": "Staphylococcus aureus [14]", "result": 5, "unit": "µg/mL"}]}
{"smiles": "C[C@H]1COc2c(N3CCN(C)CC3)c(F)cc3c(=O)c(C(=O)O)cn1c23", "note": "[LEVOFLOXACIN ANHYDROUS]", "values": [{"measurement": "MIC", "setting": "Bacillus subtilis [15]", "result": 33.6, "unit": "µg/mL"}, {"measurement": "MIC", "setting": "Escherichia coli [16]", "result": 33.6, "unit": "µg/mL"}, {"measurement": "MIC", "setting": "Pseudomonas aeruginosa [17]", "result": 33.6, "unit": "µg/mL"}, {"measurement": "MIC", "setting": "Staphylococcus aureus [18]", "result": 33.6, "unit": "µg/mL"}]}
{"smiles": "CC(=O)OC[C@@H]1O[C@H](n2cc(Cn3c(=O)c4ccccc4n(CCCCCCCCCC[P+](c4ccccc4)(c4ccccc4)c4ccccc4)c3=O)nn2)[C@@H](OC(C)=O)[C@H]1OC(C)=O.[Br-]", "values": [{"measurement": "Ratio", "setting": "Staphylococcus aureus [19]", "result": 7.5}, {"measurement": "MIC", "setting": "Staphylococcus aureus [20]", "result": 1, "unit": "µg/mL"}, {"measurement": "MIC", "setting": "Staphylococcus aureus [21]", "result": 1, "unit": "µg/mL"}]}
{"smiles": "CC1(C)S[C@@H]2[C@H](NC(=O)[C@H](N)c3ccccc3)C(=O)N2[C@H]1C(=O)O", "note": "[AMPICILLIN]", "values": [{"measurement": "MIC", "setting": "Pseudomonas aeruginosa [22]", "result": 1, "unit": "µg/mL"}, {"measurement": "MIC", "setting": "Staphylococcus aureus [2]", "result": 4, "unit": "µg/mL"}, {"measurement": "MIC", "setting": "Pseudomonas aeruginosa [13]", "result": 5, "unit": "µg/mL"}, {"measurement": "MIC", "setting": "Staphylococcus aureus [14]", "result": 2.5, "unit": "µg/mL"}, {"measurement": "MIC", "setting": "Escherichia coli [3]", "result": 4, "unit": "µg/mL"}, {"measurement": "MIC", "setting": "Bacillus subtilis [23]", "result": 4, "unit": "µg/mL"}]}
{"smiles": "C=C[C@]1(C)C[C@@H](OC(=O)CN2CCN(C(=O)Cn3cc(CN4CCN(c5ccc([N+](=O)[O-])cc5)CC4)nn3)CC2)[C@@]2(C)[C@@H]3C(=O)CC[C@@]3(CC[C@@H]2C)[C@@H](C)[C@@H]1O", "values": [{"measurement": "Activity", "setting": "Staphylococcus aureus [24]", "result": -2.07, "unit": "log10CFU/ml"}, {"measurement": "Ratio", "setting": "Staphylococcus aureus [25]", "result": 2}, {"measurement": "MIC", "setting": "Staphylococcus aureus [26]", "result": 1, "unit": "µg/mL"}, {"measurement": "MIC", "setting": "Staphylococcus aureus [27]", "result": 1, "unit": "µg/mL"}, {"measurement": "MIC", "setting": "Staphylococcus aureus [28]", "result": 1, "unit": "µg/mL"}, {"measurement": "Ratio", "setting": "Staphylococcus aureus [29]", "result": 2}, {"measurement": "Ratio", "setting": "Staphylococcus aureus [30]", "result": 2}, {"measurement": "Ratio", "setting": "Staphylococcus aureus [31]", "result": 2}, {"measurement": "MIC", "setting": "Staphylococcus aureus [32]", "result": 1, "unit": "µg/mL"}]}
{"smiles": "Cc1c(C(=O)/C=C/c2ccc(Cl)cc2)nnn1-c1ccc(Cl)c(Cl)c1", "values": [{"measurement": "MIC", "setting": "Bacillus subtilis [15]", "result": 1.3, "unit": "µg/mL"}, {"measurement": "MIC", "setting": "Escherichia coli [16]", "result": 1.3, "unit": "µg/mL"}, {"measurement": "MIC", "setting": "Pseudomonas aeruginosa [17]", "result": 1.3, "unit": "µg/mL"}, {"measurement": "MIC", "setting": "Staphylococcus aureus [18]", "result": 1.3, "unit": "µg/mL"}]}
